Measured values reported in US20150315188A1, “COMPOUNDS AND METHODS FOR TREATMENT OF HYPERTENSION” (MEDIVATION TECHNOLOGIES, INC., priority 2012, published 2015).

target: T1, Human adrenergic α2B receptor (Homo sapiens, UniProt P18089); assay: β-Arrestin GPCR functional assay, adrenergic α2B (Protocol B); assay type: cell-based; conditions: 10 nM compound; nor-epinephrine at EC80 (50 nM); read-out: Percentage inhibition, Adrenergic α2B
T1 sequence (P18089 1-450): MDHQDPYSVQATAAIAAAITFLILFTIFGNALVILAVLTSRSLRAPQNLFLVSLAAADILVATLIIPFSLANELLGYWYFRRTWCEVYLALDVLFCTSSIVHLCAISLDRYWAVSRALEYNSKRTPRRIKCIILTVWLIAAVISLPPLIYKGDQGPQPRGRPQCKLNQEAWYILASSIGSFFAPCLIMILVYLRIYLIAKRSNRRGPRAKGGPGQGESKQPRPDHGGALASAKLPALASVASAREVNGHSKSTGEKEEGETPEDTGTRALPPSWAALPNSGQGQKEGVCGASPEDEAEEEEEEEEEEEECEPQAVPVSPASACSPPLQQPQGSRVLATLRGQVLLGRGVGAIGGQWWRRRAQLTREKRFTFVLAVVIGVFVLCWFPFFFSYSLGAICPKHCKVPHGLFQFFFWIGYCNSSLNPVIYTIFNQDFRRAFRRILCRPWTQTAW
Method in brief: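 CHO cells overexpressing human α2B (PathHunter β-arrestin), 12,000 per well, 24 h at 37° C; compounds in 1% DMSO 30 min, then 50 nM norepinephrine (EC80) 90 min at 37° C.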

Structure (SMILES)	inhibition at 0.01 µM [%]
Cc1ccc2c(c1)c1c(n2CC(O)c2ccncc2F)CCN2CCCC12 (single isomer, unassigned) [14a]	13

same assay, conditions: 30 nM compound; nor-epinephrine at EC80 (50 nM)

Structure (SMILES)	Percentage inhibition, Adrenergic α2B [%]
Cc1ccc2c(c1)c1c(n2CC(O)c2ccncc2F)CCN2CCCC12 (single isomer, unassigned) [14a]	9

same assay, conditions: 0.1 μM compound; nor-epinephrine at EC80 (50 nM)

Structure (SMILES)	Percentage inhibition, Adrenergic α2B [%]
Cc1ccc2c(c1)c1c(n2CC(O)c2ccncc2F)CCN2CCCC12 (single isomer, unassigned) [14a]	41

same assay, conditions: β-arrestin, antagonist vs nor-epinephrine EC80; read-out: IC50 Adrenergic α2B

Structure (SMILES)	IC50 [nM]
Cc1cc(F)c2c(c1)c1c(n2CC(C)(O)c2ccncc2)CCN2CCCC12 (single isomer, unassigned) [81a]	16
CCCOC(Cn1c2c(c3cc(C)ccc31)CN(C)CC2)c1ccncc1 (single isomer, unassigned) [42b]	41
Cc1ccc2c(c1)c1c(n2CC(C)(O)c2ccnc(F)c2)CCN2CCCC12 (single isomer, unassigned) [48b]	18
CC(O)(Cn1c2c(c3cc(Cl)cc(F)c31)C1CCCN1CC2)c1ccncc1 (single isomer, unassigned) [52a]	16
Cc1cc(F)c2c(c1)c1c(n2CC(O)c2ccncc2)CCN2CCCC12 (single isomer, unassigned) [137b]	6.57
Cc1ccc2c(c1)c1c(n2CC(OC2CCCC2)c2ccncc2)CCN(C)C1 (single isomer, unassigned) [35a]	255
Cc1cc2c3c(n(CC(C)(O)c4ccncc4)c2cc1Cl)CCN1CCCC31 (single isomer, unassigned) [50b]	12
OC(Cn1c2c(c3cc(Cl)cc(F)c31)C1CCCN1CC2)c1ccncc1 (single isomer, unassigned) [135a]	53.1
Cc1ccc2c(c1)c1c(n2CC(O)c2ccncc2F)CCN2CCCC12 (single isomer, unassigned) [14a]	124

target: T2, Human adrenergic α2A receptor (Homo sapiens, UniProt P08913); assay: Radioligand binding, adrenergic α2A (Protocol Group B); set-up: purchased Milipore (Millipore); conditions: 0.1 μM compound; Protocol Group B; 0.1 µM
T2 sequence (P08913 1-465): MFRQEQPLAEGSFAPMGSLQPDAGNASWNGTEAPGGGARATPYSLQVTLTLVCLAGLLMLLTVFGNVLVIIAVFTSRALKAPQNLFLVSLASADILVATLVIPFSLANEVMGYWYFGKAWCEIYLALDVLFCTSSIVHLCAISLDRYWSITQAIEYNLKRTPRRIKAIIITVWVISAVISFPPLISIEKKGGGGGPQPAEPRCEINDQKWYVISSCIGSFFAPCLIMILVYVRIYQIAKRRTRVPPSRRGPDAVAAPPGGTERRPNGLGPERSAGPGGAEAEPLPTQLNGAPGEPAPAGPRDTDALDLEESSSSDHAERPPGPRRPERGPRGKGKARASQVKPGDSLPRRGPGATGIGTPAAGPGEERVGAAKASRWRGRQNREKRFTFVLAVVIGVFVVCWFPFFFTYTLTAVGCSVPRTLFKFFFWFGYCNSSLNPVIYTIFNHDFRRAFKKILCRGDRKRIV
Method in brief: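 Membranes from recombinant cells expressing the receptor, in 50 mM Tris-HCl pH 7.4 with 5 mM MgCl2, 1 mM CaCl2, 0.2% BSA; compounds incubated with 2 nM [^3H]MK-912 for 60 min at 25° C. Nonspecific binding defined by 10 μM rauwolscine; filtration, counting; percent inhibition of specific binding, or estimated Ki.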

Structure (SMILES)	Percentage inhibition of ligand binding, Adrenergic α2A (0.1 μM) [%]
CCCOC(Cn1c2c(c3cc(C)ccc31)CN(C)CC2)c1ccncc1 (single isomer, unassigned) [42b]	32
Cc1ccc2c(c1)c1c(n2CC(C)(O)c2ccnc(F)c2)CCN2CCCC12 (single isomer, unassigned) [48b]	83
Cc1cc(F)c2c(c1)c1c(n2CC(O)c2ccncc2)CCN2CCCC12 (single isomer, unassigned) [137b]	94
Cc1ccc2c(c1)c1c(n2CC(OC2CCCC2)c2ccncc2)CCN(C)C1 (single isomer, unassigned) [35a]	67
Cc1cc2c3c(n(CC(C)(O)c4ccncc4)c2cc1Cl)CCN1CCCC31 (single isomer, unassigned) [50b]	73
OC(Cn1c2c(c3cc(Cl)cc(F)c31)C1CCCN1CC2)c1ccncc1 (single isomer, unassigned) [135a]	57

same assay, conditions: 0.1 μM compound; Protocol Group B; read-out: Percentage inhibition of ligand binding, Adrenergic α2A (0.1 μM)

Structure (SMILES)	inhibition at 0.1 µM [%]
Cc1cc(F)c2c(c1)c1c(n2CC(C)(O)c2ccncc2)CCN2CCCC12 (single isomer, unassigned) [81a]	71
CC(O)(Cn1c2c(c3cc(Cl)cc(F)c31)C1CCCN1CC2)c1ccncc1 (single isomer, unassigned) [52a]	80

same assay, conditions: 0.3 μM compound; Protocol Group B; 0.3 µM

Structure (SMILES)	Percentage inhibition of ligand binding, Adrenergic α2A (0.3 μM) [%]
CCCOC(Cn1c2c(c3cc(C)ccc31)CN(C)CC2)c1ccncc1 (single isomer, unassigned) [42b]	48
Cc1ccc2c(c1)c1c(n2CC(C)(O)c2ccnc(F)c2)CCN2CCCC12 (single isomer, unassigned) [48b]	87
Cc1cc(F)c2c(c1)c1c(n2CC(O)c2ccncc2)CCN2CCCC12 (single isomer, unassigned) [137b]	102
Cc1ccc2c(c1)c1c(n2CC(OC2CCCC2)c2ccncc2)CCN(C)C1 (single isomer, unassigned) [35a]	86
Cc1cc2c3c(n(CC(C)(O)c4ccncc4)c2cc1Cl)CCN1CCCC31 (single isomer, unassigned) [50b]	86
Cc1ccc2c(c1)c1c(n2CC(O)c2ccncc2F)CCN2CCCC12 (single isomer, unassigned) [14a]	39

same assay, conditions: 0.3 μM compound; Protocol Group B; read-out: Percentage inhibition of ligand binding, Adrenergic α2A (0.3 μM)

Structure (SMILES)	inhibition at 0.3 µM [%]
Cc1cc(F)c2c(c1)c1c(n2CC(C)(O)c2ccncc2)CCN2CCCC12 (single isomer, unassigned) [81a]	90
CC(O)(Cn1c2c(c3cc(Cl)cc(F)c31)C1CCCN1CC2)c1ccncc1 (single isomer, unassigned) [52a]	89
OC(Cn1c2c(c3cc(Cl)cc(F)c31)C1CCCN1CC2)c1ccncc1 (single isomer, unassigned) [135a]	77

same assay, conditions: Protocol Group B; estimated Ki

Structure (SMILES)	Ki [nM]
Cc1cc(F)c2c(c1)c1c(n2CC(C)(O)c2ccncc2)CCN2CCCC12 (single isomer, unassigned) [81a]	19.6
CCCOC(Cn1c2c(c3cc(C)ccc31)CN(C)CC2)c1ccncc1 (single isomer, unassigned) [42b]	154
Cc1ccc2c(c1)c1c(n2CC(C)(O)c2ccnc(F)c2)CCN2CCCC12 (single isomer, unassigned) [48b]	16.4
CC(O)(Cn1c2c(c3cc(Cl)cc(F)c31)C1CCCN1CC2)c1ccncc1 (single isomer, unassigned) [52a]	13
Cc1cc(F)c2c(c1)c1c(n2CC(O)c2ccncc2)CCN2CCCC12 (single isomer, unassigned) [137b]	2.4
Cc1ccc2c(c1)c1c(n2CC(OC2CCCC2)c2ccncc2)CCN(C)C1 (single isomer, unassigned) [35a]	28.5
Cc1cc2c3c(n(CC(C)(O)c4ccncc4)c2cc1Cl)CCN1CCCC31 (single isomer, unassigned) [50b]	5.69
OC(Cn1c2c(c3cc(Cl)cc(F)c31)C1CCCN1CC2)c1ccncc1 (single isomer, unassigned) [135a]	66.1
Cc1ccc2c(c1)c1c(n2CC(O)c2ccncc2F)CCN2CCCC12 (single isomer, unassigned) [14a]	305

target: T3, Human adrenergic α1B receptor (Homo sapiens, UniProt P35368); assay: Radioligand binding, adrenergic α1B (Protocol Group B); set-up: purchased Milipore (Millipore); conditions: 0.1 μM compound; Protocol Group B; 0.1 µM
T3 sequence (P35368 1-520): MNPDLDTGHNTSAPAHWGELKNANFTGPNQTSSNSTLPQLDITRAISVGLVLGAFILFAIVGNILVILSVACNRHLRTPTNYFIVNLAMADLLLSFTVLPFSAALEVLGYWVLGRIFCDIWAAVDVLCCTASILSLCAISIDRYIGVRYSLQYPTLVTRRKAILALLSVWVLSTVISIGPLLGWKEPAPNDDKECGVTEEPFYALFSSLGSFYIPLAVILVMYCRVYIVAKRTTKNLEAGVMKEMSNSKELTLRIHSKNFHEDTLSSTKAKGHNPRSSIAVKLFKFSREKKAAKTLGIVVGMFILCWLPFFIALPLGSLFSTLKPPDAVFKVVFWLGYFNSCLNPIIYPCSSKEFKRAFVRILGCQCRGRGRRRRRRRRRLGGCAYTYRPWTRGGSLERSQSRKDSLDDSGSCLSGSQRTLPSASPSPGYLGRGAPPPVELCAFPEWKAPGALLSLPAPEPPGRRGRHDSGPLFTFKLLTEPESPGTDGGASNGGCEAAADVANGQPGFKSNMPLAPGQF
Method in brief: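 Recombinant human α1B membranes incubated with test compound and 0.3 nM [3H]prazosin, 60 min at 25 °C, in 50 mM Tris-HCl pH 7.4, 10 mM MgCl2, 1 mM EDTA; nonspecific binding with 10 μM prazosin. Filter-bound radioactivity counted; values are % inhibition of specific binding or estimated Ki.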

Structure (SMILES)	Percentage inhibition of ligand binding, Adrenergic α1B (0.1 μM) [%]
Cc1cc(F)c2c(c1)c1c(n2CC(C)(O)c2ccncc2)CCN2CCCC12 (single isomer, unassigned) [81a]	72
CCCOC(Cn1c2c(c3cc(C)ccc31)CN(C)CC2)c1ccncc1 (single isomer, unassigned) [42b]	27
Cc1ccc2c(c1)c1c(n2CC(C)(O)c2ccnc(F)c2)CCN2CCCC12 (single isomer, unassigned) [48b]	71
CC(O)(Cn1c2c(c3cc(Cl)cc(F)c31)C1CCCN1CC2)c1ccncc1 (single isomer, unassigned) [52a]	75
Cc1cc(F)c2c(c1)c1c(n2CC(O)c2ccncc2)CCN2CCCC12 (single isomer, unassigned) [137b]	74
Cc1ccc2c(c1)c1c(n2CC(OC2CCCC2)c2ccncc2)CCN(C)C1 (single isomer, unassigned) [35a]	40
Cc1cc2c3c(n(CC(C)(O)c4ccncc4)c2cc1Cl)CCN1CCCC31 (single isomer, unassigned) [50b]	80

same assay, conditions: 0.1 μM compound; Protocol Group B; read-out: Percentage inhibition of ligand binding, Adrenergic α1B (0.1 μM)

Structure (SMILES)	inhibition at 0.1 µM [%]
OC(Cn1c2c(c3cc(Cl)cc(F)c31)C1CCCN1CC2)c1ccncc1 (single isomer, unassigned) [135a]	71
Cc1ccc2c(c1)c1c(n2CC(O)c2ccncc2F)CCN2CCCC12 (single isomer, unassigned) [14a]	70

same assay, conditions: 0.3 μM compound; Protocol Group B; 0.3 µM

Structure (SMILES)	Percentage inhibition of ligand binding, Adrenergic α1B (0.3 μM) [%]
CCCOC(Cn1c2c(c3cc(C)ccc31)CN(C)CC2)c1ccncc1 (single isomer, unassigned) [42b]	45
Cc1ccc2c(c1)c1c(n2CC(C)(O)c2ccnc(F)c2)CCN2CCCC12 (single isomer, unassigned) [48b]	84
Cc1cc(F)c2c(c1)c1c(n2CC(O)c2ccncc2)CCN2CCCC12 (single isomer, unassigned) [137b]	94
Cc1ccc2c(c1)c1c(n2CC(OC2CCCC2)c2ccncc2)CCN(C)C1 (single isomer, unassigned) [35a]	71
Cc1cc2c3c(n(CC(C)(O)c4ccncc4)c2cc1Cl)CCN1CCCC31 (single isomer, unassigned) [50b]	93

same assay, conditions: 0.3 μM compound; Protocol Group B; read-out: Percentage inhibition of ligand binding, Adrenergic α1B (0.3 μM)

Structure (SMILES)	inhibition at 0.3 µM [%]
Cc1cc(F)c2c(c1)c1c(n2CC(C)(O)c2ccncc2)CCN2CCCC12 (single isomer, unassigned) [81a]	89
CC(O)(Cn1c2c(c3cc(Cl)cc(F)c31)C1CCCN1CC2)c1ccncc1 (single isomer, unassigned) [52a]	90
OC(Cn1c2c(c3cc(Cl)cc(F)c31)C1CCCN1CC2)c1ccncc1 (single isomer, unassigned) [135a]	92
Cc1ccc2c(c1)c1c(n2CC(O)c2ccncc2F)CCN2CCCC12 (single isomer, unassigned) [14a]	87

same assay, conditions: Protocol Group B; estimated Ki

Structure (SMILES)	Ki [nM]
Cc1cc(F)c2c(c1)c1c(n2CC(C)(O)c2ccncc2)CCN2CCCC12 (single isomer, unassigned) [81a]	14.6
CCCOC(Cn1c2c(c3cc(C)ccc31)CN(C)CC2)c1ccncc1 (single isomer, unassigned) [42b]	199
Cc1ccc2c(c1)c1c(n2CC(C)(O)c2ccnc(F)c2)CCN2CCCC12 (single isomer, unassigned) [48b]	25.9
CC(O)(Cn1c2c(c3cc(Cl)cc(F)c31)C1CCCN1CC2)c1ccncc1 (single isomer, unassigned) [52a]	11.4
Cc1cc(F)c2c(c1)c1c(n2CC(O)c2ccncc2)CCN2CCCC12 (single isomer, unassigned) [137b]	7.3
Cc1ccc2c(c1)c1c(n2CC(OC2CCCC2)c2ccncc2)CCN(C)C1 (single isomer, unassigned) [35a]	60
Cc1cc2c3c(n(CC(C)(O)c4ccncc4)c2cc1Cl)CCN1CCCC31 (single isomer, unassigned) [50b]	6.9
OC(Cn1c2c(c3cc(Cl)cc(F)c31)C1CCCN1CC2)c1ccncc1 (single isomer, unassigned) [135a]	23
Cc1ccc2c(c1)c1c(n2CC(O)c2ccncc2F)CCN2CCCC12 (single isomer, unassigned) [14a]	18.2
